US5043165A, “Novel liposome composition for sustained release of steroidal drugs” (priority 1988, dated 1991)
“Also recorded” adds a separate entry of the source.

Columns and labels:
[1] = Intrathecal administration: drug in cranial and spinal compartments and cerebrospinal fluid; settings: 50 ul, 20 mg/ml
[2] = Plasma pharmacokinetics of 14C-BDP after i.v. injection or intratracheal instillation; type: in vivo, male Sprague-Dawley rats; settings: rat
Protocol: In order to determine the rate of absorption of the steroidal drug into the plasma after intratracheal administration, various formulations containing either the free steroid or steroid encapsulated in liposomes were prepared and tested.
The free drug control was administered intravenously to provide relative basis for measurement of bioavailability. […] The resulting plasma profiles, given in FIG. 1, illustrate the physiological removal of steroid from the blood circulation. […] As will be seen from FIG. 2, the rate of absorption of free steroid from lungs to the plasma is rapid and the physiological removal from the plasma follows the same course as that of the free drug. […] Thus, the rate of absorption from lungs to plasma of free steroid and steroid encapsulated in conventional liposomes is not much different and follows similar curve.
Plasma and lung levels of radiolabel were measured as previously described. The decrease in plasma concentration versus time following free drug administration was biphasic (FIG. 4).

[3] = TLC assay of lung samples for metabolism of BDP before absorption; type: in vivo, rats; settings: thin layer chromatographic assay
[4] = Partition coefficient between octanol and phosphate buffer saline; type: physicochemical; settings: pH 7.4
[5] = rat, in vivo
Description: The resulting slopes and intercepts were used as estimates of the absorption rate constant (Ka) and the amount of drug in the lungs at zero time, respectively. […] These later values relate to the elimination of radiolabel already released from the liposomes and distributed to the lungs. The amount of drug in the lungs at time zero can be used to determine the amount of free drug in the formulation, since free drug is very rapidly absorbed from the lungs (Dose=free drug+amount in lungs at t=0). This amount also includes any liposome associated drug that was rapidly released ("burst" effect).
All studies were performed in male Sprague-Dawley rats weighing 250 to 450 g. After fasting for 16 hours, animals were anesthetized by i.m. injection of ketamine (25 mg/kg), xylazine (5 mg/kg) and acepromazine (0.5 mg/ml). During the procedure the animal's body temperature was maintained with a 37° C. heating pad. Additional anesthetic was administered as required, using half the original dose. A midline incision was made in the neck and the right jugular vein and left carotid artery were cannulated with short lengths of polyethylene tubing to which a 23 ga Luer stub adapter (Clay Adams #7565) and plastic 3-way stopcock (Argyle #173518) were attached. Blood samples (0.5-4 ml) were removed from the carotid arterial cannula after first flushing with fresh blood to clear the line. […]
Blood samples were removed at four time points during the study from each rat, centrifuged, and the serum was removed and stored frozen (-20°C.) until assayed. […] The homogenate was briefly centrifuged and measured aliquots of the supernate removed to Teflon-stoppered glass tubes which were stored at -20° C. or below until assayed.
The actual dose administered in each study was determined by measurement of duplicate dose control samples of the formulation which were delivered by the same apparatus used in dosing the animals.
In some studies, the plasma concentration of radiolabel was also measured over the course of the experiment.

[6] = in vivo; cited from earlier work
[7] = mouse, in vivo, iv
Protocol: The nonconventional steroidal liposome composition prepared according to Example III was administered intravenously and the ability of mouse organs to bind and/or take up the radiolabel was studied.
All experiments were carried out using groups of male ICR mice weighing approximately 25 grams (the weight of any individual mouse was not more than 10% different from the group mean weight). Doses of nonconventional liposomes containing beclomethosome dipropionate spiked according to Example III were administered to a mouse via a tail vein. At the end of the experimental period mice were lightly anesthesized with diethyl ether and a 1 ml blood sample was rapidly removed from the jugular vein with a heparinized syringe. […]
All organ and carcass samples were stored at -20° prior to analysis. […] Dried samples were analyzed for total ^14 C radioactivity by scintillation counting following combustion in a Packard Sample Oxidizer, Combustions were carried out in series, with the inclusion of appropriate blanks. A duplicate sample from every third animal was analyzed to monitor the combustion reproducibility. […] Total radioactivity in liver, spleen, carcass and 1.0 ml blood was calculated and converted to percent of encapsulated dose. […] Total radioactivity in vivo was estimated by summing values for liver, spleen, total blood volume and carcass.

## C[C@]12CCC(=O)C=C1CC[C@@H]1[C@@H]2C(=O)C[C@@]2(C)[C@H]1CC[C@]2(O)C(=O)CO [free cortisone, cortisone]
[1]
  time to almost complete disappearance from cranial or spinal compartments: ≤ 2.8 h
  time to elimination from cerebrospinal fluid: ≤ 2.8 h

## CCC(=O)OCC(=O)[C@@]1(OC(=O)CC)[C@@H](C)C[C@H]2[C@@H]3CCC4=CC(=O)C=C[C@]4(C)[C@@]3(Cl)[C@@H](O)C[C@@]21C [BDP, beclomethasone dipropionate]
[2]; intratracheal instillation, listed as free BDP
  absorption from lungs (in words): rapid; also recorded: quickly removed from the lungs into plasma
[2]; compared with free drug
  plasma kinetics (in words): biphasic
[3]
  metabolism of BDP prior to leaving the lungs: no detectable metabolism of BDP prior to leaving the lungs
[4]
  BDP associated with the octanol (octanol/phosphate buffer saline partition): 95%
[5]
  apparent half-life in lungs (elimination of radiolabel already released, not absorption): 3.0 h
  drug absorbed before the first time point: over 98%
[5]; iv
  radiolabel removed/absorbed from the lungs: 99.7%
[6]
  secondary adverse reactions: localized infection of the mouth and pharynx with Candida albicans or Aspergillus niger, hoarseness and dry mouth

## C[C@H]1C[C@H]2[C@@H]3CCC4=CC(=O)C=C[C@]4(C)[C@@]3(Cl)[C@@H](O)C[C@]2(C)[C@@]1(O)C(=O)CO [Free beclomethasone, beclomethasone]
[7]
  persistence in plasma: disappears rapidly from the plasma
